Assay results from PMC10518717, “High-Throughput Screening and Proteomic Characterization of Compounds Targeting Myeloid-Derived Suppressor Cells” (Molecular & Cellular Proteomics : MCP, 2023).

System: NUP-MDSC
Assay: Global proteome expression profiling of compound-treated NUP-MDSC (TMT LC-MS/MS)
Format: cell-based, mouse
Conditions: for log2 FC cmpd2/cmpd3: cmpd2 versus cmpd3, NUP-MDSC; for normalized reporter intensities R1: replicate R1, compound-treated NUP-MDSC; for normalized reporter intensities R3: replicate R3, compound-treated NUP-MDSC
Description: After treatments, medium was removed, cells were washed twice with PBS, and the cell pellets were further subjected to proteomic sample preparation.
The cell pellet was reconstituted in 2% SDS in 50 mM Tris–HCl pH 7.5 and lysed by heating to 95 °C for 10 min. One microliter of 100% TFA was added to each sample to hydrolyze DNA, and the pH was subsequently adjusted to 8.5 with 3 M Tris solution. Disulfide bonds were reduced with 10 mM DTT for 45 min at 37 °C, followed by alkylation of cysteines with 55 mM CAA for 30 min at room temperature. Prior to tryptic digestion, the detergent was removed from lysates by SP3 cleanup on an Agilent BRAVO system (Agilent Technologies), following the protocol first described by Hughes et al. ([34]). Briefly, lysate containing 200 μg of protein was mixed with SP3 beads, and proteins were precipitated onto a 50:50 mixture of Sera-Mag Speed Bead types A and B (Thermo Fisher Scientific) in 58% acetonitrile. Beads were washed three times with 80% ethanol in water and once with acetonitrile. Tryptic digest was performed in 100 μl of digestion buffer (2 mM CaCl2 in 25 mM Hepes, pH 8.5) with a 1:50 enzyme-to-protein ratio. Bead-precipitated proteins were digested at 37 °C overnight. On the next day, the supernatant of each sample was transferred to a new well and vacuum dried.
Dried peptides were reconstituted in water and labeled with the respective TMT10plex-labeling reagent as described previously ([35]) with a protein to tandem mass tag (TMT) reagent ratio of 1:2. Labeled samples were pooled, vacuum dried, and reconstituted in 0.1% formic acid (FA) prior to desalting on SepPAC50 columns (waters corp.). Peptides were fractionated using a Dionex Ultra 3000 HPLC system with a Waters XBridge BEH130 C18 3.5 um 2.1 × 250 mm column as described previously ([36]). Ninety-six fractions were collected and pooled to 48. For the full proteome analysis, one fifth of each fraction was transferred to a new 96-well plate and both plates were vacuum dried. For the phosphopeptide analysis, dried peptides were reconstituted in 55 μl 0.1% TFA in 30% ACN, pooled from 48 to 12 fractions, and mixed with 70 μl priming buffer (0.1% TFA, 100% ACN). Phosphopeptides were enriched from each of the 12 fractions using Fe(III)-IMAC-NTA cartridges on the AssayMAP BRAVO (Agilent Technologies) platform as described previously ([36]). Phosphopeptides were eluted with 60 μl 1% ammonia, vacuum dried, and stored at −20 °C prior to LC-MS/MS analysis.
The Fusion Lumos was operated in data-dependent acquisition and positive ionization mode. Samples were measured employing a MS3 method. In brief, full scan MS1 spectra were recorded in the orbitrap (OT) from 360 to 1560 m/z at 60,000 resolution using an automatic gain control (AGC) target value of 4e5 charges and a maximum injection time (maxIT) of 50 ms. Iontrap-MS2 spectra for peptide identification were acquired using higher energy collision dissociation (HCD) fragmentation with 32% normalized collision energy (NCE), an isolation window of 0.6 m/z, and an AGC target value of 1.2e4 charges. To obtain quantitative information on TMT reporter ions, each peptide precursor was fragmented again as for MS2 analysis followed by synchronous selection of the up to eight most intense peptide fragments in the iontrap ([37]) and further fragmentation via HCD using a NCE of 55%. The MS3 scan was recorded in the OT at 50,000 resolution (scan range 100–1000 m/z, isolation window of 1.2 m/z, AGC of 1e5 charges, maxIT of 86 ms). The cycle time was 1.2 s, and the dynamic exclusion lasted for 50 s.
Peptide, protein, and phosphorylation site identification and quantification were performed with MaxQuant software (v. 1.6.3.3, https://www.maxquant.org/) with standard settings for reporter ion MS3 unless described otherwise ([39]). Isotope impurities of the TMT lot were specified to allow MaxQuant the automated correction of TMT intensities. […]

[1] = protein 0610011F06Rik / Mettl26 (Q9DCS2)
[2] = protein 0610037L13Rik / Czib (Q8BHG2)
[3] = protein Trappc2 (Q8R3W2;Q9CQP2)

## CCOC(=O)c1nnn(-c2nn3nnnc3c3ccccc23)c1C [compound 2]
3xEC50, 72 h, relative to compound 3 at 10 μM
  expression of proteins associated with detoxification by peroxiredoxin and further ROS-reducing proteins (Prdx1, Txnrd1, Srxn1, Cat, Nqo1, Blvrb): upregulated
[1]
  log2 FC cmpd2/cmpd3: -0.03832
  normalized reporter intensities R1: 20.3044
  normalized reporter intensities R3: 20.1769
[2]
  log2 FC cmpd2/cmpd3: -0.06333
  normalized reporter intensities R1: 20.0663
  normalized reporter intensities R3: 19.9557
Protein Bap18 (D3Z687;Q9DCT6)
  log2 FC cmpd2/cmpd3: -0.2777
  normalized reporter intensities R1: 16.8475
  normalized reporter intensities R3: 16.9614
[3]
  log2 FC cmpd2/cmpd3: -0.004852
  normalized reporter intensities R1: 18.4905
  normalized reporter intensities R3: 18.3959

## c1ccc2c(c1)c(-n1ccnc1)nn1nnnc21 [compound 3]
[1]
  normalized reporter intensities R1: 20.3551
  normalized reporter intensities R3: 20.1713
[2]
  normalized reporter intensities R1: 20.1036
  normalized reporter intensities R3: 20.057
Protein Bap18 (D3Z687;Q9DCT6)
  normalized reporter intensities R1: 17.1673
  normalized reporter intensities R3: 17.2868
[3]
  normalized reporter intensities R1: 18.5332
  normalized reporter intensities R3: 18.3626
